According to US20260077018A1, “TREATMENT OF MILD TRAUMATIC BRAIN INJURY” (OXEIA BIOPHARMACEUTICALS, INC., priority 2022, published 2026):
No end group written: not given here. *: point of attachment. Octanoyl = CCCCCCCC(=O)*

Test system: persistently symptomatic concussion patients
Assay: Phase 2 study of OXE-103 in persistently symptomatic concussion: PCSS symptom scoring
Format: in vivo, human
Details: for PCSS symptom balance_problems / PCSS symptom difficulty_concentrating / PCSS symptom difficulty_remembering / PCSS symptom dizziness / PCSS symptom drowsiness / PCSS symptom fatigue / PCSS symptom feeling_in_a_fog / PCSS symptom feeling_more_emotional / PCSS symptom feeling_slowed_down / PCSS symptom headache / PCSS symptom irritability / PCSS symptom nausea / PCSS symptom neck_pain / PCSS symptom nervous_anxious / PCSS symptom numbness_or_tingling / PCSS symptom sadness / PCSS symptom sensitivity_to_light / PCSS symptom sensitivity_to_noise / PCSS symptom sleeping_less_than_usual / PCSS symptom sleeping_more_than_usual / PCSS symptom trouble_falling_asleep / PCSS symptom visual_problems / PCSS symptom vomiting: OXE-103 Treated, aggregated; for 20% Responders - PCSS: Number of Responders / 20% Responders - PCSS: Responder % / 30% Responders - PCSS: Number of Responders / 30% Responders - PCSS: Responder %: Treated, 13 subjects
Text: Describe the change in symptom burden in sub-acute concussion for the two groups. A maximum of 50 subjects are enrolled, but recruiting stops if each arm has 20 participants, diagnosed with persistent concussion symptoms 28 days post injury who complete the study. Patients are randomized 1:1 to placebo versus OXE-103. The Post-Concussion Symptom Score questionnaire (PCSS) is used as an overall measure of symptom burden. The number of symptoms and severity at each time point are also measures of interest. In addition, subjects are asked to identify and rank the 4 most bothersome symptoms. Without being bound by theory, it is hypothesized that changes in these most bothersome symptoms have a higher correlation to improvement in quality of life. A visual comparison of change in the two groups is made. A change of 20% is considered to be clinically meaningful. This primary aim describes the change in symptoms between day 1 and day 14.
Described herein is a randomized, double-blind, placebo-controlled design where 40 subjects will be randomized to either a placebo cohort or a treatment with OXE-103 cohort. We randomize using the RedCap database. The database is set up to share randomization allocation only with the investigational pharmacy. All subjects are consented and begin the screening period within 28 days post-injury. There is a 7-day screening period prior to randomization and commencement of study treatment to allow for assessment of stability of symptom burden. This screening period must start no later than 28 days post-injury. Starting with Day 1 (end of screening period), the treatment cohort receives OXE-103 40ug/kg SC twice daily by self-injection and the placebo group receives a placebo injection SC twice daily. Study drug and placebo are maintained and dispensed by Investigational Pharmacy. Subjects receive an 8-day supply of syringes pre-loaded with OXE-103 or placebo. Each cohort receives the 2nd set of syringes with OXE-103 or placebo at the day 7 visit. No therapies other than OXE-103 are administered during the 14-day treatment period to either cohort. After completion of 14 days of either placebo or OXE-103 treatment, starting with the Day 14 visit, other medications and therapies can be initiated for either cohort as needed.
Symptom reduction (AIM 1): Our primary goal is to describe the change in number of symptoms and/or severity in sub-acute concussion with treatment with OXE-103 using the PCSS at days 1 and 15. We will also collect data at days 21 and 44 to potentially describe long term changes and potential lasting effect (AIM 4).
Subjects complete the PCSS at the following timepoints[17]: upon signing consent (score must 20) (day −7), mid-way through the screening period (day −3), prior to assignment of a treatment cohort (score must 20) (day 1), as well as days 4, 8, 11, 15, 21 and 44. Subjects are instructed to record their symptoms at the same time of day for each assessment timepoint. There can be a two-hour window either way. (e.g. 12 PM+/−2 hrs.) The PCSS is recorded via a RedCap survey. The PCSS is a self-reported assessment of 22 symptoms using a Likert-type scale ranging from 0-6, with 0 indicating no difficulty with the outlined symptom and ratings of 1-6 representing mild-to-severe difficulty with the symptom. The reliability and validity of the PCSS are well documented We also ask subjects to rank their 4 most burdensome symptoms (4MBS) at Day 1 and we analyze these separately. As stated in the Specific Aims the purpose of this study is to collect data that would further refine clinical endpoints that could be used for larger Phase 2 studies and possibly lead to the establishment of pivotal endpoints for Phase 3 registration trials. The 22 symptom PCSS assessment is designed to cover the full spectrum of concussion related symptoms across cognitive, emotional and somatic domains. In that regard the PCSS is particularly useful for diagnosis and monitoring recovery of patients post injury. […]

Substance: ghrelin (GSS(Octanoyl)FLSPEHQRVQQRKESKKPPAKLQPR; UniProt Q9UBU3 24-51, looked up) [OXE-103, naturally occurring peptide comprising 28 amino acids that include an N-octanoyl group at the 3-position of serine]
- PCSS symptom balance_problems (Day 1): 30
- PCSS symptom difficulty_concentrating (Day 1): 46
- PCSS symptom difficulty_remembering (Day 1): 48
- PCSS symptom dizziness (Day 1): 37
- PCSS symptom drowsiness (Day 1): 38
- PCSS symptom fatigue (Day 1): 43
- PCSS symptom feeling_in_a_fog (Day 1): 46
- PCSS symptom feeling_more_emotional (Day 1): 31
- PCSS symptom feeling_slowed_down (Day 1): 46
- PCSS symptom headache (Day 1): 37
- PCSS symptom irritability (Day 1): 35
- PCSS symptom nausea (Day 1): 18
- PCSS symptom neck_pain (Day 1): 38
- PCSS symptom nervous_anxious (Day 1): 35
- PCSS symptom numbness_or_tingling (Day 1): 16
- PCSS symptom sadness (Day 1): 28
- PCSS symptom sensitivity_to_light (Day 1): 35
- PCSS symptom sensitivity_to_noise (Day 1): 36
- PCSS symptom sleeping_less_than_usual (Day 1): 15
- PCSS symptom sleeping_more_than_usual (Day 1): 24
- PCSS symptom trouble_falling_asleep (Day 1): 37
- PCSS symptom visual_problems (Day 1): 30
- PCSS symptom vomiting (Day 1): 2
- 20% Responders - PCSS: Number of Responders (Day 1): 0
- 20% Responders - PCSS: Responder % (Day 1): 0%
- 30% Responders - PCSS: Number of Responders (Day 1): 0
- 30% Responders - PCSS: Responder % (Day 1): 0%
- PCSS symptom balance_problems (Day 4): 25
- PCSS symptom difficulty_concentrating (Day 4): 37
- PCSS symptom difficulty_remembering (Day 4): 35
- PCSS symptom dizziness (Day 4): 35
- PCSS symptom drowsiness (Day 4): 39
- PCSS symptom fatigue (Day 4): 44
- PCSS symptom feeling_in_a_fog (Day 4): 30
- PCSS symptom feeling_more_emotional (Day 4): 24
- PCSS symptom feeling_slowed_down (Day 4): 33
- PCSS symptom headache (Day 4): 29
- PCSS symptom irritability (Day 4): 30
- PCSS symptom nausea (Day 4): 11
- PCSS symptom neck_pain (Day 4): 29
- PCSS symptom nervous_anxious (Day 4): 25
- PCSS symptom numbness_or_tingling (Day 4): 6
- PCSS symptom sadness (Day 4): 17
- PCSS symptom sensitivity_to_light (Day 4): 25
- PCSS symptom sensitivity_to_noise (Day 4): 26
- PCSS symptom sleeping_less_than_usual (Day 4): 23
- PCSS symptom sleeping_more_than_usual (Day 4): 32
- PCSS symptom trouble_falling_asleep (Day 4): 32
- PCSS symptom visual_problems (Day 4): 18
- PCSS symptom vomiting (Day 4): 1
- 20% Responders - PCSS: Number of Responders (Day 4): 4
- 20% Responders - PCSS: Responder % (Day 4): 31%
- 30% Responders - PCSS: Number of Responders (Day 4): 3
- 30% Responders - PCSS: Responder % (Day 4): 23%
- PCSS symptom balance_problems (Day 8): 30
- PCSS symptom difficulty_concentrating (Day 8): 41
- PCSS symptom difficulty_remembering (Day 8): 35
- PCSS symptom dizziness (Day 8): 28
- PCSS symptom drowsiness (Day 8): 41
- PCSS symptom fatigue (Day 8): 45
- PCSS symptom feeling_in_a_fog (Day 8): 34
- PCSS symptom feeling_more_emotional (Day 8): 33
- PCSS symptom feeling_slowed_down (Day 8): 36
- PCSS symptom headache (Day 8): 34
- PCSS symptom irritability (Day 8): 36
- PCSS symptom nausea (Day 8): 15
- PCSS symptom neck_pain (Day 8): 26
- PCSS symptom nervous_anxious (Day 8): 34
- PCSS symptom numbness_or_tingling (Day 8): 12
- PCSS symptom sadness (Day 8): 32
- PCSS symptom sensitivity_to_light (Day 8): 20
- PCSS symptom sensitivity_to_noise (Day 8): 23
- PCSS symptom sleeping_less_than_usual (Day 8): 32
- PCSS symptom sleeping_more_than_usual (Day 8): 20
- PCSS symptom trouble_falling_asleep (Day 8): 32
- PCSS symptom visual_problems (Day 8): 23
- PCSS symptom vomiting (Day 8): 1
- 20% Responders - PCSS: Number of Responders (Day 8): 3
- 20% Responders - PCSS: Responder % (Day 8): 23%
- 30% Responders - PCSS: Number of Responders (Day 8): 2
- 30% Responders - PCSS: Responder % (Day 8): 15%
- PCSS symptom balance_problems (Day 11): 24
- PCSS symptom difficulty_concentrating (Day 11): 23
- PCSS symptom difficulty_remembering (Day 11): 28
- PCSS symptom dizziness (Day 11): 18
- PCSS symptom drowsiness (Day 11): 33
- PCSS symptom fatigue (Day 11): 36
- PCSS symptom feeling_in_a_fog (Day 11): 23
- PCSS symptom feeling_more_emotional (Day 11): 20
- PCSS symptom feeling_slowed_down (Day 11): 27
- PCSS symptom headache (Day 11): 21
- PCSS symptom irritability (Day 11): 28
- PCSS symptom nausea (Day 11): 10
- PCSS symptom neck_pain (Day 11): 18
- PCSS symptom nervous_anxious (Day 11): 19
- PCSS symptom numbness_or_tingling (Day 11): 5
- PCSS symptom sadness (Day 11): 22
- PCSS symptom sensitivity_to_light (Day 11): 18
- PCSS symptom sensitivity_to_noise (Day 11): 19
- PCSS symptom sleeping_less_than_usual (Day 11): 15
- PCSS symptom sleeping_more_than_usual (Day 11): 19
- PCSS symptom trouble_falling_asleep (Day 11): 21
- PCSS symptom visual_problems (Day 11): 12
- PCSS symptom vomiting (Day 11): 1
- 20% Responders - PCSS: Number of Responders (Day 11): 9
- 20% Responders - PCSS: Responder % (Day 11): 69%
